Values of other authors in patent publication US5017613A, “Valproic acid preparations” (Sanofi, S. A., priority 1983, dated 1991).

Conditions: after oral administration

bioavailability in the blood of valproic acid: ~100%
SMILES: CCCC(CCC)C(=O)O [valproic acid, Dipropylacetic or valproic acid]
